Source: patent publication US20080045564A1 (priority 2006, published 2008)

What was measured:
[1] = system: CYP2B6
[2] = system: human CYP1A1; settings: due to increased mRNA expression levels; Bapiro et al.; cited from earlier work

SMILES | induction of CYP2B6 by reference inducer ([1]; 1 mM Phenobarbital, each hepatocyte donor) | induction of CYP2B6 activity (statistical significance, summary over three donors) ([1]; hepatocytes) | induction of human CYP1A1 activity [2]
CCC1(c2ccccc2)C(=O)NC(=O)NC1=O [Phenobarbital] | statistically significant amount of induction | – | –
C=C[C@H]1C[N@@]2CC[C@H]1C[C@H]2[C@H](O)c1ccnc2ccc(OC)cc12 [quinine, cinchonan-9-ol, 6′-methoxy-, (8a,9R)-] | – | an inducer | induced
